According to paper PMC9266004, “Potential Common Mechanisms of Cytotoxicity Induced by Amide Herbicides via TRPA1 Channel Activation” (International Journal of Environmental Research and Public …, 2022):
Where two headings read alike, the source gives them in different places.

Legend:
[1] = test system: calcium influx in A549 cells; assay: Cellular calcium imaging (Fluo-4) in WT A549 cells; format: cell-based, human; settings: for calcium influx compared with 0 μM AHs: A549 cells, 150, 300, 600, 1200 μM; for calcium influx with HC-030031 pre-treatment compared with AHs treatment alone: A549 cells, HC-030031 50 μM, AHs 150-1200 μM
Description: (§1) Wild-type (WT) and TRPA1-KO A549 cells were cultured in McCoy’s 5A Media and F-12K Nutrient Mixture containing 10% fetal bovine serum, respectively. WT/TRPA1-KO A549 cells (5 × 10^4 cells/mL) were seeded in 96-well (100 μL/well) and 6-well (2 mL/well) plates and incubated at 37 °C with 5% CO2 in a humidified incubator for 24 h. WT/TRPA1-KO A549 cells were treated with AHs gradient concentrations (0, 150, 300, 600, 1200 μM) prepared in methanol (1.2 M) for 24 h. […]
(§2) Working solution was prepared according to the instructions of the Fluo-4 Direct calcium assay kit and directly added to WT/TRPA1-KO A549 cells in 96-well plates, which were incubated for 0.5 h and kept away from light after removal from the incubator. Single channel fluorescein isothiocyanate (FITC) levels were measured using a confocal high-content imaging system (IXM-C S150069, Molecular Devices, San Jose, CA, USA).

[2] = biological target: hTRPA1 ARD recombinant protein (Homo sapiens, UniProt O75762); assay: LSPR binding analysis (OpenSPR, COOH chip); settings: at the analyte concentrations tested (up to 1000-2000 μM)
Chain of hTRPA1 ARD recombinant protein (O75762 62-609): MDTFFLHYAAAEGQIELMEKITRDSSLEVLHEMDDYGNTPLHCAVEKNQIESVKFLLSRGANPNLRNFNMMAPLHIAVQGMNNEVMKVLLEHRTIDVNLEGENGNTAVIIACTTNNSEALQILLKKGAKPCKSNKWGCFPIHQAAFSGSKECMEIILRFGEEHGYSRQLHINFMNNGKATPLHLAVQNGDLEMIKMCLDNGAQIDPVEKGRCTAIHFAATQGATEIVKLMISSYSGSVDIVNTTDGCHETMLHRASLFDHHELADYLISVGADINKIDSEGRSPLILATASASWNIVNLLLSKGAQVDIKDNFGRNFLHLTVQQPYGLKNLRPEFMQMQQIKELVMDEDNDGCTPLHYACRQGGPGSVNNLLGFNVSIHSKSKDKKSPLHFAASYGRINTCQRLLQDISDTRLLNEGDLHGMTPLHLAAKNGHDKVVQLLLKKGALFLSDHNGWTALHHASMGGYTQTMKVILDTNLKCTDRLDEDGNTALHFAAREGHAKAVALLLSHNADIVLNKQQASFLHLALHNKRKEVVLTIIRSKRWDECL
Description: The binding capacity of hTRPA1 ARD recombinant protein and AHs was determined by LSPR according to the OpenSPR (Nicoya Life Sciences, Kitchener, ON, Canada) operating procedure using the COOH chip. After the baseline signal was obtained, the sample was washed with 200 µL 80% isopropyl alcohol for 10 s, and 200 µL ethylcarbodiimide/N-hydroxysuccinimide solution was added. The sample loop was rinsed with phosphate-buffered saline (PBS). hTRPA1 (5 µL) was diluted with PBS, incubated for 4 min, and 200 µL blocking solution was added. […] Contact and dissociation time of analytes and protein were 240 s and 160 s, respectively. TraceDrawer software was applied to determine the association constant (ka), dissociation constant (kd), and affinity constant (KD) using a 1:1 model.

A549 cells [3] = assay: CCK-8 cell viability assay in WT A549 cells; format: cell-based, human; settings: for viability of A549 cells compared with 0 μM AHs: 150, 300, 600, 1200 μM, 24 h; for viability of A549 cells compared with 0 μM AHs / IC50: CCK-8; for viability with HC-030031 pre-treatment compared with AHs treatment alone: A549 cells, HC-030031 50 μM, AHs 150, 300, 600 μM
Description: as §1
(§3) To conduct the cell viability assay, the growth medium was removed from WT/TRPA1-KO A549 cells cultured in a 96-well plate. CCK-8 reagent was mixed with complete medium (1:9 volume ratio), and 100 µL of the CCK-8 reagent mixture was added to each well. The plate was incubated for 4 h and the absorbance was measured at 450 nm using a microplate reader (BNR05740; Molecular Devices, Sunnyvale, CA, USA). The average absorbance from each sextuplicate set of wells was calculated and the background control value was subtracted from each absorbance value. The percentage cell viability was determined using the following equation:cell viability (%) = [(As − Ab)/(Ac − Ab)] × 100% where As is the absorbance of the experimental well (containing medium, CCK-8 reagent, cells, and compound); Ac is the absorbance of the control well (containing medium, CCK-8 reagent, and cells); and Ab is the absorbance of the blank well (containing medium and CCK-8 reagent).

TRPA1-KO A549 cells = assay: CCK-8 cell viability assay in TRPA1-KO A549 cells; format: cell-based, human; settings: for IC50: Homo sapiens, TRPA1-KO A549 cells, 24 h treatment, CCK-8, read-out: IC50 values of AHs, TRPA1-KO A549 Cells; for viability of TRPA1-KO A549 cells compared with AHs-treated WT cells: KO of TRPA1, AHs 150, 300, 600 μM
Description: (§4) The hTRPA1 gene sequence (Gene ID: 8989) was obtained from the National Center for Biotechnology Information (NCBI) website (https://www.ncbi.nlm.nih.gov/gene/8989 accessed on 26 May 2022). Three gRNA sequences, namely, T1: 5′-[…]-[…], T16: 5′-[…]-3′, and T20: 5′-[…]-3′, were designed using the CRISPR online design tool (http://crispr.mit.edu/ accessed on 26 May 2022). Transfection of cells with gRNA-Cas9 was validated in test cells. Cell pool examination was performed using Sanger sequencing. Sequencing and tracer analysis were performed using the online tool TIDE (https://tide-calculator.nki.nl/ accessed on 26 May 2022) to investigate the cleavage efficiency of T1, T16, and T20. Cells from the cell pool were diluted in 96-well plates. Clones were observed under a microscope and wells containing single cell clones were labeled. Single cell clones were transferred to 24-well plates for expansion. Validation of knockout (KO) clones was performed via sequencing to confirm insertion and deletion on the genomes of KO clone candidates. Furthermore, mycoplasmas were detected for cloned cells with high KO using the Mycoplasma PCR Detection Kit.
(§5) Wild-type (WT) and TRPA1-KO A549 cells were cultured in McCoy’s 5A Media and F-12K Nutrient Mixture containing 10% fetal bovine serum, respectively. WT/TRPA1-KO A549 cells (5 × 10^4 cells/mL) were seeded in 96-well (100 μL/well) and 6-well (2 mL/well) plates and incubated at 37 °C with 5% CO2 in a humidified incubator for 24 h. WT/TRPA1-KO A549 cells were treated with AHs gradient concentrations (0, 150, 300, 600, 1200 μM) prepared in methanol (1.2 M) for 24 h. Additionally, WT/TRPA1-KO A549 cells were pre-treated with TRPA1 special inhibitor HC-030031 (100 μM) for 0.5 h and then treated with AHs gradient concentrations for 24 h.
as §3

TRPA1 mRNA in A549 cells = assay: RT-qPCR of TRPA1 mRNA; format: cell-based, human; settings: for TRPA1 mRNA expression with HC-030031 pre-treatment compared with AHs treatment alone: HC-030031 50 μM, AHs 150, 300, 600 μM; for expression of TRPA1 mRNA compared with 0 μM AHs: significant at one or more of 150, 300, 600 μM
Description: as §1
TRIzol Reagent (1 mL) was directly added to WT/TRPA1-KO A549 cells in 6-well plates and total RNA was extracted according to the manufacturer’s instructions. Total RNA was used for cDNA reverse transcription, which was performed according to the PrimeScript RT protocol with the following reaction conditions: 42 °C for 2 min, 4 °C for ∞ (removal of genomic DNA), 37 °C for 15 min, 85 °C for 5 s, and 4 °C for ∞ (reverse transcriptional reaction). RT-qPCR was performed according to the TB Green Premix Ex Taq II protocol. Primer sequences and product lengths were as follows: hTRPA1 (107 bp) forward primer 5′-[…]-3′, reverse primer 5′-[…]-3′; hβ-actin (184 bp) forward primer 5′-[…]-3′, reverse primer 5′-[…]-3′. RT-qPCR was performed using the CFX96 Real-Time System (Bio-Rad Laboratories, Hercules, CA, USA) using the following reaction conditions: 95 °C for 30 s, 40 cycles of 95 °C for 5 s, 60 °C for 30 s, and 72 °C for 30 s, followed by a melting curve from 65 to 95 °C in 0.5 °C/5 s increments. Calculations were performed using the CFX Manager^TM Version 1.0 software (Bio-Rad Laboratories Ltd., Hercules, CA, USA) and are represented as fold change in expression [2^ΔΔC(t)] on a linear scale.

[4] = test system: calcium influx in TRPA1-KO A549 cells; assay: Cellular calcium imaging (Fluo-4) in TRPA1-KO A549 cells; format: cell-based, human; settings: AHs 150-1200 μM
Description: as §4, §5, §2

A549 cells [5] = assay: LDH cytotoxicity assay; format: cell-based, human
Description: as §5
Using the Cytotoxicity LDH Assay Kit, lysis buffer (10 μL) was added to the high control well of a 96-well plate containing WT/TRPA1-KO A549 cells, which was then incubated for 0.5 h. Working solution was prepared by adding 5 mL assay buffer to the dye mixture vial, of which 100 μL was added to each well. The plate was protected from light and incubated at room temperature for 0.5 h. Subsequently, 50 μL stop solution was added to each well and the absorbance was measured immediately at 490 nm using a microplate reader (BNR05740, Molecular Devices). The average absorbance was calculated from each sextuplicate set of wells and the background control value was subtracted from each absorbance value. The percentage cytotoxicity was determined using the following equation:cytotoxicity (%) = [(Aa − Ab1)/(Ab2 − Ab1)] × 100% where Aa is the absorbance of the experimental well (containing medium, cells, and compound); Ab2 is the absorbance of the high control well (containing medium, cells, and lysis buffer); and Ab1 is the absorbance of the low control well (containing medium and cells).

[6] = Homo sapiens, WT A549 cells, 24 h treatment, read-out: IC50 values of AHs, A549 Cells
[7] = WT A549 cells pre-treated with HC-030031 50 μM, then AHs 24 h, read-out: IC50 values of AHs, A549 Cells + HC-030031 50 μM

CCOCN(C(=O)CCl)c1c(C)cccc1CC [Acetochlor, acetochlor]
calcium influx compared with 0 μM AHs [1]: significantly increased
calcium influx with HC-030031 pre-treatment compared with AHs treatment alone [1]: significantly decreased calcium influx
binding between hTRPA1 and AHs (LSPR) [2]: Obvious binding was not detected
viability of A549 cells compared with 0 μM AHs (A549 cells [3]): significantly decreased
viability with HC-030031 pre-treatment compared with AHs treatment alone (A549 cells [3]): significantly increased viability
IC50 (A549 cells [3]; [6]): 524 µM
IC50 (A549 cells [3]; [7]): 647 µM
IC50 (TRPA1-KO A549 cells): 696 µM
viability of TRPA1-KO A549 cells compared with AHs-treated WT cells (TRPA1-KO A549 cells): significantly increased the viability
TRPA1 mRNA expression with HC-030031 pre-treatment compared with AHs treatment alone (TRPA1 mRNA in A549 cells): significantly reduced
expression of TRPA1 mRNA compared with 0 μM AHs (TRPA1 mRNA in A549 cells): significantly increased
calcium influx with KO of TRPA1 compared with AHs-treated WT cells [4]: significantly decreased calcium influx

CCc1cccc(CC)c1N(COC)C(=O)CCl [Alachlor, alachlor]
calcium influx compared with 0 μM AHs [1]: significantly increased
calcium influx with HC-030031 pre-treatment compared with AHs treatment alone [1]: significantly decreased calcium influx
cell damage (LDH) compared with 0 μM AHs (A549 cells [5]; 150, 300, 600, 1200 μM, 24 h): significantly increased cell damage
binding between hTRPA1 and AHs (LSPR) [2]: Obvious binding was not detected
viability of A549 cells compared with 0 μM AHs (A549 cells [3]): significantly decreased
viability with HC-030031 pre-treatment compared with AHs treatment alone (A549 cells [3]): significantly increased viability
IC50 (A549 cells [3]; [6]): 565 µM
IC50 (A549 cells [3]; [7]): 731 µM
IC50 (TRPA1-KO A549 cells): 659 µM
viability of TRPA1-KO A549 cells compared with AHs-treated WT cells (TRPA1-KO A549 cells): significantly increased the viability
TRPA1 mRNA expression with HC-030031 pre-treatment compared with AHs treatment alone (TRPA1 mRNA in A549 cells): significantly reduced
expression of TRPA1 mRNA compared with 0 μM AHs (TRPA1 mRNA in A549 cells): significantly increased
calcium influx with KO of TRPA1 compared with AHs-treated WT cells [4]: significantly decreased calcium influx

CCCCOCN(C(=O)CCl)c1c(CC)cccc1CC [Butachlor, butachlor]
calcium influx compared with 0 μM AHs [1]: significantly increased
calcium influx with HC-030031 pre-treatment compared with AHs treatment alone [1]: significantly decreased calcium influx
cell damage (LDH) compared with 0 μM AHs (A549 cells [5]): significantly increased cell damage
binding between hTRPA1 and AHs (LSPR) [2]: Obvious binding was not detected
viability of A549 cells compared with 0 μM AHs (A549 cells [3]): significantly decreased
viability with HC-030031 pre-treatment compared with AHs treatment alone (A549 cells [3]): significantly increased viability
IC50 (A549 cells [3]; [6]): 619 µM
IC50 (A549 cells [3]; [7]): 1760 µM
IC50 (TRPA1-KO A549 cells): 767 µM
viability of TRPA1-KO A549 cells compared with AHs-treated WT cells (TRPA1-KO A549 cells): significantly increased the viability
TRPA1 mRNA expression with HC-030031 pre-treatment compared with AHs treatment alone (TRPA1 mRNA in A549 cells): significantly reduced
expression of TRPA1 mRNA compared with 0 μM AHs (TRPA1 mRNA in A549 cells): significantly increased
calcium influx with KO of TRPA1 compared with AHs-treated WT cells [4]: significantly decreased calcium influx

CCc1cccc(C)c1N(COC(C)C)C(=O)CCl [Propisochlor, propisochlor]
calcium influx compared with 0 μM AHs [1]: significantly increased
calcium influx with HC-030031 pre-treatment compared with AHs treatment alone [1]: significantly decreased calcium influx
cell damage (LDH) compared with 0 μM AHs (A549 cells [5]; 150, 300, 600, 1200 μM, 24 h): significantly increased cell damage
binding between hTRPA1 and AHs (LSPR) [2]: Obvious binding was not detected
viability of A549 cells compared with 0 μM AHs (A549 cells [3]): significantly decreased
viability with HC-030031 pre-treatment compared with AHs treatment alone (A549 cells [3]): albeit not significantly
IC50 (A549 cells [3]; [6]): 564 µM
IC50 (A549 cells [3]; [7]): 1690 µM
IC50 (TRPA1-KO A549 cells): 1830 µM
viability of TRPA1-KO A549 cells compared with AHs-treated WT cells (TRPA1-KO A549 cells): significantly increased the viability
TRPA1 mRNA expression with HC-030031 pre-treatment compared with AHs treatment alone (TRPA1 mRNA in A549 cells): albeit not significantly
expression of TRPA1 mRNA compared with 0 μM AHs (TRPA1 mRNA in A549 cells): significantly increased
calcium influx with KO of TRPA1 compared with AHs-treated WT cells [4]: significantly decreased calcium influx
